From paper PMC5602553 (Biochemistry, 2017) come the findings set out here.

In general, Kd refers to the concentration at which binding is half-saturated. Lower therefore signals a tighter complex.

For this test, the target named is T1, KpCld (Klebsiella pneumoniae, UniProt A6TJ49).
T1 sequence (A6TJ49 1-187): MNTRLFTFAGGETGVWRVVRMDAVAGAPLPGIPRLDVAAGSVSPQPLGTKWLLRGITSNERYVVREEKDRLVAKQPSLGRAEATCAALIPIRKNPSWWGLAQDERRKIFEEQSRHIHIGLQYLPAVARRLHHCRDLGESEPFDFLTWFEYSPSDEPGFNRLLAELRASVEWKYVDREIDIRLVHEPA
Particulars: 100 mM phosphate pH 6.0; ferric enzyme; single binding site.

Molecules are shown by their SMILES.

In turn, `Br` [Br^−] showed a Kd of 12.2 mM.
